ChEMBL document CHEMBL3526147, “Tissue distribution and characterization of drug-related material in rats and dogs after repeated oral administration of casopitant” (Drug Metab Dispos, 2011)

What was measured:
Set-up in all cases: dosed compound name [14C]Casopitant, route oral
Conditions in all cases: in vivo
[1] = test system: Blood; assay: Drug level in Sprague-Dawley rat blood assessed as free base level at 60 mg/kg/day, po administered as repeat dose measured after 24 hrs on day 20; type: ADME, organism-based
[2] = Drug level in beagle dog blood assessed as free base level at 40 mg/kg/day, po administered as single dose measured after 2 hrs on day 1; type: ADME, organism-based, Canis lupus familiaris
[3] = test system: Kidney; assay: Drug level in Sprague-Dawley rat kidney assessed as free base level at 60 mg/kg/day, po administered as repeat dose measured after 24 hrs on day 40; type: ADME, organism-based
[4] = test system: Blood; assay: Drug level in Sprague-Dawley rat blood assessed as free base level at 60 mg/kg/day, po administered as repeat dose measured after 24 hrs on day 40; type: ADME, organism-based
[5] = test system: Plasma; assay: Drug level in Sprague-Dawley rat plasma assessed as free base level at 60 mg/kg/day, po administered as repeat dose measured after 24 hrs on day 27; type: ADME, organism-based
[6] = test system: Liver; assay: Drug level in Sprague-Dawley rat liver assessed as free base level at 60 mg/kg/day, po administered as single dose measured after 24 hrs on day 1; type: ADME, organism-based
[7] = Drug level in beagle dog kidney assessed as free base level at 40 mg/kg/day, po administered as repeat dose measured after 24 hrs on day 34; type: ADME, organism-based, Canis lupus familiaris
[8] = test system: Plasma; assay: Drug level in beagle dog plasma assessed as free base level at 40 mg/kg/day, po administered as repeat dose measured after 2 hrs on day 14; type: ADME, organism-based, Canis lupus familiaris
[9] = Drug level in beagle dog blood assessed as free base level at 40 mg/kg/day, po administered as repeat dose measured after 24 hrs on day 34; type: ADME, organism-based, Canis lupus familiaris
[10] = Drug level in beagle dog kidney assessed as free base level at 40 mg/kg/day, po administered as repeat dose measured after 24 hrs on day 14; type: ADME, organism-based, Canis lupus familiaris
[11] = test system: Kidney; assay: Drug level in Sprague-Dawley rat kidney assessed as free base level at 60 mg/kg/day, po administered as repeat dose measured after 24 hrs on day 20; type: ADME, organism-based
[12] = test system: Lung; assay: Drug level in Sprague-Dawley rat lung assessed as free base level at 60 mg/kg/day, po administered as repeat dose measured after 24 hrs on day 20; type: ADME, organism-based
[13] = Drug level in Sprague-Dawley rat myocardium assessed as free base level at 60 mg/kg/day, po administered as repeat dose measured after 24 hrs on day 20; type: ADME, organism-based
[14] = test system: Blood; assay: Drug level in Sprague-Dawley rat blood assessed as free base level at 60 mg/kg/day, po administered as repeat dose measured after 24 hrs on day 27; type: ADME, organism-based
[15] = test system: Liver; assay: Drug level in beagle dog liver assessed as free base level at 40 mg/kg/day, po administered as repeat dose measured after 24 hrs on day 34; type: ADME, organism-based, Canis lupus familiaris
[16] = Drug level in Sprague-Dawley rat myocardium assessed as free base level at 60 mg/kg/day, po administered as repeat dose measured after 24 hrs on day 27; type: ADME, organism-based
[17] = test system: Lung; assay: Drug level in Sprague-Dawley rat lung assessed as free base level at 60 mg/kg/day, po administered as repeat dose measured after 24 hrs on day 27; type: ADME, organism-based
[18] = test system: Lung; assay: Drug level in Sprague-Dawley rat lung assessed as free base level at 60 mg/kg/day, po administered as repeat dose measured after 24 hrs on day 40; type: ADME, organism-based
[19] = test system: Plasma; assay: Drug level in beagle dog plasma assessed as free base level at 40 mg/kg/day, po administered as repeat dose measured after 24 hrs on day 34; type: ADME, organism-based, Canis lupus familiaris
[20] = test system: Liver; assay: Drug level in Sprague-Dawley rat liver assessed as free base level at 60 mg/kg/day, po administered as repeat dose measured after 24 hrs on day 27; type: ADME, organism-based
[21] = Drug level in Sprague-Dawley rat myocardium assessed as free base level at 60 mg/kg/day, po administered as repeat dose measured after 24 hrs on day 40; type: ADME, organism-based
[22] = Drug level in beagle dog skeletal muscle assessed as free base level at 40 mg/kg/day, po administered as repeat dose measured after 24 hrs on day 34; type: ADME, organism-based, Canis lupus familiaris, Muscle tissue
[23] = Drug level in beagle dog myocardium assessed as free base level at 40 mg/kg/day, po administered as repeat dose measured after 24 hrs on day 34; type: ADME, organism-based, Canis lupus familiaris
[24] = test system: Kidney; assay: Drug level in Sprague-Dawley rat kidney assessed as free base level at 60 mg/kg/day, po administered as single dose measured after 24 hrs on day 1; type: ADME, organism-based
[25] = Drug level in beagle dog skeletal muscle assessed as free base level at 40 mg/kg/day, po administered as repeat dose measured after 24 hrs on day 14; type: ADME, organism-based, Canis lupus familiaris, Muscle tissue
[26] = Drug level in Sprague-Dawley rat myocardium assessed as free base level at 60 mg/kg/day, po administered as single dose measured after 24 hrs on day 1; type: ADME, organism-based
[27] = Drug level in beagle dog lung assessed as free base level at 40 mg/kg/day, po administered as repeat dose measured after 24 hrs on day 34; type: ADME, organism-based, Canis lupus familiaris
[28] = test system: Liver; assay: Drug level in Sprague-Dawley rat liver assessed as free base level at 60 mg/kg/day, po administered as repeat dose measured after 24 hrs on day 20; type: ADME, organism-based
[29] = Drug level in Sprague-Dawley rat skeletal muscle assessed as free base level at 60 mg/kg/day, po administered as repeat dose measured after 24 hrs on day 40; type: ADME, organism-based, Muscle tissue
[30] = test system: Plasma; assay: Drug level in Sprague-Dawley rat plasma assessed as free base level at 60 mg/kg/day, po administered as single dose measured after 2 hrs on day 1; type: ADME, organism-based
[31] = test system: Kidney; assay: Drug level in Sprague-Dawley rat kidney assessed as free base level at 60 mg/kg/day, po administered as repeat dose measured after 24 hrs on day 27; type: ADME, organism-based
[32] = Drug level in beagle dog blood assessed as free base level at 40 mg/kg/day, po administered as repeat dose measured after 24 hrs on day 14; type: ADME, organism-based, Canis lupus familiaris
[33] = test system: Blood; assay: Drug level in Sprague-Dawley rat blood assessed as free base level at 60 mg/kg/day, po administered as single dose measured after 24 hrs on day 1; type: ADME, organism-based
[34] = Drug level in beagle dog blood assessed as free base level at 40 mg/kg/day, po administered as single dose measured after 24 hrs on day 1; type: ADME, organism-based, Canis lupus familiaris
[35] = test system: Plasma; assay: Drug level in Sprague-Dawley rat plasma assessed as free base level at 60 mg/kg/day, po administered as single dose measured after 24 hrs on day 1; type: ADME, organism-based
[36] = test system: Plasma; assay: Drug level in beagle dog plasma assessed as free base level at 40 mg/kg/day, po administered as single dose measured after 24 hrs on day 1; type: ADME, organism-based, Canis lupus familiaris
[37] = test system: Plasma; assay: Drug level in beagle dog plasma assessed as free base level at 40 mg/kg/day, po administered as repeat dose measured after 24 hrs on day 14; type: ADME, organism-based, Canis lupus familiaris
[38] = Drug level in beagle dog blood assessed as free base level at 40 mg/kg/day, po administered as repeat dose measured after 2 hrs on day 14; type: ADME, organism-based, Canis lupus familiaris
[39] = test system: Plasma; assay: Drug level in Sprague-Dawley rat plasma assessed as free base level at 60 mg/kg/day, po administered as repeat dose measured after 24 hrs on day 40; type: ADME, organism-based
[40] = test system: Lung; assay: Drug level in Sprague-Dawley rat lung assessed as free base level at 60 mg/kg/day, po administered as single dose measured after 24 hrs on day 1; type: ADME, organism-based
[41] = Drug level in beagle dog myocardium assessed as free base level at 40 mg/kg/day, po administered as repeat dose measured after 24 hrs on day 14; type: ADME, organism-based, Canis lupus familiaris
[42] = Drug level in Sprague-Dawley rat skeletal muscle assessed as free base level at 60 mg/kg/day, po administered as repeat dose measured after 24 hrs on day 20; type: ADME, organism-based, Muscle tissue
[43] = Drug level in Sprague-Dawley rat skeletal muscle assessed as free base level at 60 mg/kg/day, po administered as repeat dose measured after 24 hrs on day 27; type: ADME, organism-based, Muscle tissue
[44] = test system: Plasma; assay: Drug level in beagle dog plasma assessed as free base level at 40 mg/kg/day, po administered as single dose measured after 2 hrs on day 1; type: ADME, organism-based, Canis lupus familiaris
[45] = test system: Plasma; assay: Drug level in Sprague-Dawley rat plasma assessed as free base level at 60 mg/kg/day, po administered as single dose measured after 2 hrs on day 20; type: ADME, organism-based
[46] = Drug level in Sprague-Dawley rat skeletal muscle assessed as free base level at 60 mg/kg/day, po administered as single dose measured after 24 hrs on day 1; type: ADME, organism-based, Muscle tissue
[47] = test system: Plasma; assay: Drug level in Sprague-Dawley rat plasma assessed as free base level at 60 mg/kg/day, po administered as repeat dose measured after 24 hrs on day 20; type: ADME, organism-based
[48] = Drug level in beagle dog lung assessed as free base level at 40 mg/kg/day, po administered as repeat dose measured after 24 hrs on day 14; type: ADME, organism-based, Canis lupus familiaris
[49] = test system: Liver; assay: Drug level in beagle dog liver assessed as free base level at 40 mg/kg/day, po administered as repeat dose measured after 24 hrs on day 14; type: ADME, organism-based, Canis lupus familiaris
[50] = test system: Liver; assay: Drug level in Sprague-Dawley rat liver assessed as free base level at 60 mg/kg/day, po administered as repeat dose measured after 24 hrs on day 40; type: ADME, organism-based

Radiolabel recovery [1]: 14.5 ugequiv/g
Radiolabel recovery [2]: 11.3 ugequiv/g
Radiolabel recovery [3]: 39.2 ugequiv/g
Radiolabel recovery [4]: 3.63 ugequiv/g
Radiolabel recovery [5]: 1.92 ugequiv/g
Radiolabel recovery [6]: 121 ugequiv/g
Radiolabel recovery [7]: 102 ugequiv/g
Radiolabel recovery [8]: 69.5 ugequiv/g
Radiolabel recovery [9]: 9.95 ugequiv/g
Radiolabel recovery [10]: 308 ugequiv/g
Radiolabel recovery [11]: 256 ugequiv/g
Radiolabel recovery [12]: 405 ugequiv/g
Radiolabel recovery [13]: 79.6 ugequiv/g
Radiolabel recovery [14]: 7.67 ugequiv/g
Radiolabel recovery [15]: 612 ugequiv/g
Radiolabel recovery [16]: 32.9 ugequiv/g
Radiolabel recovery [17]: 136 ugequiv/g
Radiolabel recovery [18]: 96.8 ugequiv/g
Radiolabel recovery [19]: 11.6 ugequiv/g
Radiolabel recovery [20]: 240 ugequiv/g
Radiolabel recovery [21]: 26.7 ugequiv/g
Radiolabel recovery [22]: 21.3 ugequiv/g
Radiolabel recovery [23]: 96.2 ugequiv/g
Radiolabel recovery [24]: 59.1 ugequiv/g
Radiolabel recovery [25]: 99.2 ugequiv/g
Radiolabel recovery [26]: 34.6 ugequiv/g
Radiolabel recovery [27]: 345 ugequiv/g
Radiolabel recovery [28]: 545 ugequiv/g
Radiolabel recovery [29]: 7.74 ugequiv/g
Radiolabel recovery [30]: 6.06 ugequiv/g
Radiolabel recovery [31]: 64.6 ugequiv/g
Radiolabel recovery [32]: 35.3 ugequiv/g
Radiolabel recovery [33]: 5.6 ugequiv/g
Radiolabel recovery [34]: 9.4 ugequiv/g
Radiolabel recovery [35]: 5.54 ugequiv/g
Radiolabel recovery [36]: 9.68 ugequiv/g
Radiolabel recovery [37]: 49.2 ugequiv/g
Radiolabel recovery [38]: 47.4 ugequiv/g
Radiolabel recovery [39]: 0.246 ugequiv/g
Radiolabel recovery [40]: 135 ugequiv/g
Radiolabel recovery [41]: 243 ugequiv/g
Radiolabel recovery [42]: 28.1 ugequiv/g
Radiolabel recovery [43]: 10.7 ugequiv/g
Radiolabel recovery [44]: 20.8 ugequiv/g
Radiolabel recovery [45]: 18.5 ugequiv/g
Radiolabel recovery [46]: 18.3 ugequiv/g
Radiolabel recovery [47]: 12.4 ugequiv/g
Radiolabel recovery [48]: 905 ugequiv/g
Radiolabel recovery [49]: 1050 ugequiv/g
Radiolabel recovery [50]: 90.4 ugequiv/g
Compound: CC(=O)N1CCN([C@H]2CCN([14C](=O)N(C)[C@H](C)c3cc(C(F)(F)F)cc(C(F)(F)F)c3)[C@@H](c3ccc(F)cc3C)C2)CC1.CS(=O)(=O)O
